Test results published in patent publication US20170050957A1, “4-AMINO-6-(HETEROCYCLIC)PICOLINATES AND 6-AMINO-2-(HETEROCYCLIC)PYRIMIDINE-4-CARBOXYLATES AND THEIR USE AS HERBICIDES” (Dow AgroSciences LLC, priority 2013, published 2017).
Where two headings read alike, the source gives them in different places.

What was measured:
[1] = tested on: Key Broadleaf Weed and Crop Species; experiment: Post-emergent Test II herbicidal activity (Table 15); format: in vivo; settings: post-emergence, 336 h, 14 d; for pest or weed control at 35 g/ha: 35 g ai/ha; for pest or weed control at 70 g/ha: 70 g ai/ha; for pest or weed control at 140 g/ha: 140 g ai/ha
How it was run: (§1)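 Plants grown in greenhouse (~15 h photoperiod, 23-29 °C day, 22-28 °C night) to first or second true leaf stage, then sprayed post-emergence at 187 L/ha with a high rate and 1/2×, 1/4×, 1/8× and 1/16× dilutions. Injury scored visually after 14 d, 0-100% versus untreated plants.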

[2] = tested on: Key Grass and Sedge Weeds as well as Grass Crops; experiment: Post-emergent Test II herbicidal activity (Table 16); format: in vivo; settings: post-emergence, 336 h, 14 d; for pest or weed control at 35 g/ha: 35 g ai/ha; for pest or weed control at 70 g/ha: 70 g ai/ha; for pest or weed control at 140 g/ha: 140 g ai/ha
How it was run: as §1

[3] = Abutilon theophrasti, velvetleaf (Abutilon theophrasti), read-out: Visual Growth Reduction (%) 14 Days After Application, ABUTH
[4] = Amaranthus retroflexus, redroot pigweed (Amaranthus retroflexus), read-out: Visual Growth Reduction (%) 14 Days After Application, AMARE
[5] = Brassica napus, oilseed rape, canola (Brassica napus), read-out: Visual Growth Reduction (%) 14 Days After Application, BRSNN
[6] = Chenopodium album, lambsquarters (Chenopodium album), read-out: Visual Growth Reduction (%) 14 Days After Application, CHEAL
[7] = Euphorbia heterophylla, wild poinsettia (Euphorbia heterophylla), read-out: Visual Growth Reduction (%) 14 Days After Application, EPHHL
[8] = Helianthus annuus, sunflower (Helianthus annuus), read-out: Visual Growth Reduction (%) 14 Days After Application, HELAN
[9] = Cyperus esculentus, yellow nutsedge (Cyperus esculentus), read-out: Visual Growth Reduction (%) 14 Days After Application, CYPES
[10] = Echinochloa crus-galli, barnyardgrass (Echinochloa crus-galli), read-out: Visual Growth Reduction (%) 14 Days After Application, ECHCG
[11] = Oryza sativa, rice (Oryza sativa), read-out: Visual Growth Reduction (%) 14 Days After Application, ORYSA
[12] = Setaria faberi, giant foxtail (Setaria faberi), read-out: Visual Growth Reduction (%) 14 Days After Application, SETFA
[13] = Triticum aestivum, wheat, spring (Triticum aestivum), read-out: Visual Growth Reduction (%) 14 Days After Application, TRZAS
[14] = Zea mays, maize, corn (Zea mays), read-out: Visual Growth Reduction (%) 14 Days After Application, ZEAMX

| SMILES | pest or weed control at 35 g/ha [1, 3] [%] | pest or weed control at 70 g/ha [1, 3] [%] | pest or weed control at 140 g/ha [1, 3] [%] | pest or weed control at 70 g/ha [1, 4] [%] | pest or weed control at 140 g/ha [1, 4] [%] | pest or weed control at 35 g/ha [1, 5] [%] | pest or weed control at 70 g/ha [1, 5] [%] | pest or weed control at 140 g/ha [1, 5] [%] | pest or weed control at 35 g/ha [1, 6] [%] | pest or weed control at 70 g/ha [1, 6] [%] | pest or weed control at 140 g/ha [1, 6] [%] | pest or weed control at 35 g/ha [1, 7] [%] | pest or weed control at 70 g/ha [1, 7] [%] | pest or weed control at 140 g/ha [1, 7] [%] | pest or weed control at 35 g/ha [1, 8] [%] | pest or weed control at 70 g/ha [1, 8] [%] | pest or weed control at 140 g/ha [1, 8] [%] | pest or weed control at 35 g/ha [2, 9] [%] | pest or weed control at 70 g/ha [2, 9] [%] | pest or weed control at 140 g/ha [2, 9] [%] | other results |
| --- | --- | --- | --- | --- | --- | --- | --- | --- | --- | --- | --- | --- | --- | --- | --- | --- | --- | --- | --- | --- | --- |
| Nc1cc(-c2ccc3cc[nH]c3c2)nc(C(=O)O)c1Cl [Compound 1.22] | 0 to 29 | 0 to 29 | 0 to 29 | 75 to 84 | 85 to 94 | 45 to 59 | 60 to 74 | 60 to 74 | 0 to 29 | 0 to 29 | 0 to 29 | 45 to 59 | 75 to 84 | 85 to 94 | 75 to 84 | 85 to 94 | 85 to 94 | 0 to 29 | 0 to 29 | 0 to 29 | pest or weed control at 35 g/ha [1, 4]: 75 to 84%; pest or weed control at 35 g/ha [2, 10]: 0 to 29%; pest or weed control at 70 g/ha [2, 10]: 0 to 29%; pest or weed control at 140 g/ha [2, 10]: 0 to 29%; pest or weed control at 35 g/ha [2, 11]: 0 to 29%; pest or weed control at 70 g/ha [2, 11]: 0 to 29%; pest or weed control at 140 g/ha [2, 11]: 0 to 29%; pest or weed control at 35 g/ha [2, 12]: 0 to 29%; pest or weed control at 70 g/ha [2, 12]: 60 to 74%; pest or weed control at 140 g/ha [2, 12]: 85 to 94%; pest or weed control at 35 g/ha [2, 13]: 0 to 29%; pest or weed control at 70 g/ha [2, 13]: 0 to 29%; pest or weed control at 140 g/ha [2, 13]: 0 to 29%; pest or weed control at 35 g/ha [2, 14]: 0 to 29%; pest or weed control at 70 g/ha [2, 14]: 0 to 29%; pest or weed control at 140 g/ha [2, 14]: 0 to 29%; melting point: 172 to 174 °C |
| Cn1ccc2cc(-c3nc(C(=O)O)c(Cl)c(N)c3F)ccc21 [Compound 1.01] | 0 to 29 | 0 to 29 | 30 to 44 | 0 to 29 | 45 to 59 | 0 to 29 | 0 to 29 | 0 to 29 | 0 to 29 | 0 to 29 | 0 to 29 | 95 to 100 | 95 to 100 | 95 to 100 | 0 to 29 | 75 to 84 | 75 to 84 | 0 to 29 | 0 to 29 | 0 to 29 | pest or weed control at 35 g/ha [2, 10]: 0 to 29%; pest or weed control at 140 g/ha [2, 10]: 75 to 84%; pest or weed control at 35 g/ha [2, 11]: 0 to 29%; pest or weed control at 70 g/ha [2, 11]: 0 to 29%; pest or weed control at 140 g/ha [2, 11]: 0 to 29%; pest or weed control at 35 g/ha [2, 12]: 0 to 29%; pest or weed control at 70 g/ha [2, 12]: 0 to 29%; pest or weed control at 140 g/ha [2, 12]: 0 to 29%; pest or weed control at 35 g/ha [2, 13]: 0 to 29%; pest or weed control at 70 g/ha [2, 13]: 0 to 29%; pest or weed control at 140 g/ha [2, 13]: 0 to 29%; pest or weed control at 35 g/ha [2, 14]: 0 to 29%; pest or weed control at 70 g/ha [2, 14]: 95 to 100%; pest or weed control at 140 g/ha [2, 14]: 85 to 94%; melting point: 166 to 168 °C |
